Source: US20260176320A1, “MODULATORS OF G-PROTEIN COUPLED RECEPTORS” (priority 2018, published 2026)
Where two headings read alike, the source gives them in different places.

What was measured:
GLP-1R = GLP-1R (Homo sapiens, UniProt P43220); assay: HitHunter cAMP assay (GLP-1R); type: cell-based; conditions: cAMP; for Emax: read-out: (Emax) GLP-1R; for EC50: read-out: EC50 GLP-1R/nM
Outline: (§1)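 cAMP, luminescence read: agonist 22-pt 2× dilution in DMSO, duplicate, 30 min RT on 10,000 cells/well in 1×HBSS/10 mM HEPES/625 μM IBMX/0.2% BSA; anti-cAMP reagent 1 h RT dark, then O/N RT dark before read.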

GIP-R = target: T1, GIP-R (Homo sapiens, UniProt P48546); assay: HitHunter cAMP assay (GIP-R); type: cell-based; conditions: cAMP; for Emax: read-out: (Emax) GIP-R; for EC50: read-out: EC50 GIP-R/nM
T1 sequence (P48546 22-466): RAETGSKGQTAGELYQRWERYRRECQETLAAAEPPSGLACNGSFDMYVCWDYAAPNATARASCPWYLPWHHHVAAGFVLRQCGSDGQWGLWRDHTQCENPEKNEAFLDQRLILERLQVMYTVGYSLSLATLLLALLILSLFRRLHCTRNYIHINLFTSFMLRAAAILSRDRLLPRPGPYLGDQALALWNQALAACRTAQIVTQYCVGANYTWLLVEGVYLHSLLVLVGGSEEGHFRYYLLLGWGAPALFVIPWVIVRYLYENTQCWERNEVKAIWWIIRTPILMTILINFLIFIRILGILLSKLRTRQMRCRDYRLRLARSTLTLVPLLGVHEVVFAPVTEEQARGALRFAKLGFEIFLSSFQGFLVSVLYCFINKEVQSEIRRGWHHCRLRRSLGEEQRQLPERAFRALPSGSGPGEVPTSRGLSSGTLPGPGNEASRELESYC
Outline: as §1

Chain of GLP-1R (P43220 24-463): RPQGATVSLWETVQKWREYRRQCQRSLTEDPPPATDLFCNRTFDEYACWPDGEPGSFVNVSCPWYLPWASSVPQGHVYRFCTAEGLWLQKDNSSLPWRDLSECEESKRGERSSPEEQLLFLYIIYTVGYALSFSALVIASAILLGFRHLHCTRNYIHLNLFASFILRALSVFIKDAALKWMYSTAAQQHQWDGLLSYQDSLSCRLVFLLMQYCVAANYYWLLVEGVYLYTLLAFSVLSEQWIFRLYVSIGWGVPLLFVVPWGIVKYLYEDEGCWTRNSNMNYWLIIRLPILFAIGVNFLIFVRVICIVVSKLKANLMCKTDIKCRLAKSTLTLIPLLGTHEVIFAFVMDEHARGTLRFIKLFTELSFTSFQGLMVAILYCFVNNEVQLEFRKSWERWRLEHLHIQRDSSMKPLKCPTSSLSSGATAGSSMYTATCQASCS

| Structure (SMILES) | Emax (GLP-1R; Table 3) [%] | EC50 (GLP-1R; Table 3) [nM] | Emax (GLP-1R; Table 3A) [%] | EC50 (GLP-1R; Table 3A) [nM] | Emax (GIP-R; Table 3) [%] | EC50 (GIP-R; Table 3) [nM] | Emax (GIP-R; Table 3A) [%] | EC50 (GIP-R; Table 3A) [nM] |
| --- | --- | --- | --- | --- | --- | --- | --- | --- |
| CCCCCCCCCCCCCCCC(=O)N[C@@H](CCC(=O)NCCCC[C@H](NC(=O)[C@H](CO)NC(=O)[C@@H]1CCCN1C(=O)[C@@H]1CCCN1C(=O)[C@@H]1CCCN1C(=O)[C@H](C)NC(=O)CNC(=O)[C@H](CO)NC(=O)[C@H](CO)NC(=O)[C@@H]1CCCN1C(=O)CNC(=O)CNC(=O)[C@H](C)NC(=O)[C@H](CC(C)C)NC(=O)[C@H](CC(C)C)NC(=O)[C@H](Cc1c[nH]c2ccccc12)NC(=O)[C@H](CC(N)=O)NC(=O)[C@@H](NC(=O)[C@H](Cc1ccccc1)NC(=O)[C@H](CCC(=O)O)NC(=O)C(C)(C)NC(=O)[C@H](C)NC(=O)[C@H](C)NC(=O)[C@H](CCC(N)=O)NC(=O)[C@H](CCCCN)NC(=O)[C@H](CC(=O)O)NC(=O)[C@H](CC(C)C)NC(=O)[C@H](Cc1ccc(O)cc1)NC(=O)[C@@H](NC(=O)[C@H](CO)NC(=O)[C@H](Cc1ccc(O)cc1)NC(=O)[C@H](CC(=O)O)NC(=O)[C@H](CO)NC(=O)[C@@H](NC(=O)[C@H](Cc1ccccc1)NC(=O)[C@@H](NC(=O)CNC(=O)[C@H](CCC(=O)O)NC(=O)CSCC(=O)NCCN1C[C@H](O)CC1=O)[C@@H](C)O)[C@@H](C)O)[C@@H](C)CC)C(C)C)C(N)=O)C(=O)O [Compound 50] | 103 | 0.1 to 1 | 103 | 0.1 to 1 | 26 | 1 to 10 | 26 | 10 to 100 |
| CCCCCCCCCCCCCCCC(=O)N[C@@H](CCC(=O)NCCCC[C@H](NC(=O)[C@H](CO)NC(=O)[C@@H]1CCCN1C(=O)[C@@H]1CCCN1C(=O)[C@@H]1CCCN1C(=O)[C@H](C)NC(=O)CNC(=O)[C@H](CO)NC(=O)[C@H](CO)NC(=O)[C@@H]1CCCN1C(=O)CNC(=O)CNC(=O)[C@H](C)NC(=O)[C@H](CC(C)C)NC(=O)[C@H](CC(C)C)NC(=O)[C@H](Cc1c[nH]c2ccccc12)NC(=O)[C@H](CC(N)=O)NC(=O)[C@@H](NC(=O)[C@H](Cc1ccccc1)NC(=O)[C@H](CCC(=O)O)NC(=O)C(C)(C)NC(=O)[C@H](C)NC(=O)[C@H](C)NC(=O)[C@H](CCC(N)=O)NC(=O)[C@H](CCCCN)NC(=O)[C@H](CC(=O)O)NC(=O)[C@H](CC(C)C)NC(=O)[C@H](Cc1ccc(O)cc1)NC(=O)[C@@H](NC(=O)[C@H](CO)NC(=O)[C@H](Cc1ccc(O)cc1)NC(=O)[C@H](CC(=O)O)NC(=O)[C@H](CO)NC(=O)[C@@H](NC(=O)[C@H](Cc1ccccc1)NC(=O)[C@@H](NC(=O)CNC(=O)[C@H](CCC(=O)O)NC(=O)CCCNC(=O)CCN1C(=O)CSC1=O)[C@@H](C)O)[C@@H](C)O)[C@@H](C)CC)C(C)C)C(N)=O)C(=O)O [Compound 51] | 98 | 0.1 to 1 | 98 | 0.1 to 1 | 65 | 1 to 10 | 65 | 1 to 10 |
| CCCCCCCCCCCCCCCC(=O)N[C@@H](CCC(=O)NCCCC[C@H](NC(=O)[C@H](CO)NC(=O)[C@@H]1CCCN1C(=O)[C@@H]1CCCN1C(=O)[C@@H]1CCCN1C(=O)[C@H](C)NC(=O)CNC(=O)[C@H](CO)NC(=O)[C@H](CO)NC(=O)[C@@H]1CCCN1C(=O)CNC(=O)CNC(=O)[C@H](C)NC(=O)[C@H](CC(C)C)NC(=O)[C@H](CC(C)C)NC(=O)[C@H](Cc1c[nH]c2ccccc12)NC(=O)[C@H](CC(N)=O)NC(=O)[C@@H](NC(=O)[C@H](Cc1ccccc1)NC(=O)[C@H](CCC(=O)O)NC(=O)C(C)(C)NC(=O)[C@H](C)NC(=O)[C@H](C)NC(=O)[C@H](CCC(N)=O)NC(=O)[C@H](CCCCN)NC(=O)[C@H](CC(=O)O)NC(=O)[C@H](CC(C)C)NC(=O)[C@H](Cc1ccc(O)cc1)NC(=O)[C@@H](NC(=O)[C@H](CO)NC(=O)[C@H](Cc1ccc(O)cc1)NC(=O)[C@H](CC(=O)O)NC(=O)[C@H](CO)NC(=O)[C@@H](NC(=O)[C@H](Cc1ccccc1)NC(=O)[C@@H](NC(=O)CNC(=O)[C@H](CCC(=O)O)NC(=O)CSCC(=O)NCCn1ccccc1=O)[C@@H](C)O)[C@@H](C)O)[C@@H](C)CC)C(C)C)C(N)=O)C(=O)O [Compound 52] | 101 | < 0.1 | 101 | < 0.1 | 56 to 61 | 1 to 10 | 56 to 61 | 1 to 10 |
